Reference: patent US3994882A, “Nitrofuran derivatives, process for the preparation thereof and compositions containing same as active ingredient” (Kabushiki Kaisha Ueno Seiyaku Oyo Kenkyujo, priority 1974, dated 1976)
In brackets after ≈: the same amount, converted by molar mass. Where two headings read alike, the source gives them in different places.

Legend:
[1] = system: Erysiperothrix rhusiopatiae Agata; assay: Cure of mice infected with Erysiperothrix rhusiopatiae (Table 5); type: in vivo; settings: Mus musculus, 168 h, observed 7 days, read-out: ED50 when used with Erysiperothrix rhusiopatiae
Protocol: Mice of body weight about 20 grams were used, and 0.2 ml of a culture liquid obtained by cultivating Erysiperothrix rhusiopatiae Agata for 24 hours at 37° C. in a 10% calf serum TSB added culture medium (amount of inoculated germs 4.0 × 10^7) was injected abdominally.

[2] = system: Chondrococcus columnaris Ek-23; assay: Minimum growth inhibiting concentration, microorganisms that infect fish (Table 3); type: cell-based; settings: Flavobacterium columnare, EK23, 0.5% NaCl added TSB agar, 25° C., 48 hours (asterisked)
Protocol: (§1) The minimum growth inhibiting concentrations were measured under indentical contitions as in the case of Table 1. The culture temperature was 25° C., the culture being carried out for 48 hours in the asterisked case and 24 hours in the other cases.

Aeromonas punctata = assay: as above; type: cell-based; settings: Aeromonas caviae, 0.5% NaCl added ordinary agar, 25° C., 24 hours
Protocol: as §1

[3] = system: Vibrio piscium var. Japonicus; assay: as above; type: cell-based; settings: Vibrio anguillarum, 0.5% NaCl added ordinary agar, 25° C., 24 hours
Protocol: as §1

Pasteurella piricida SU = assay: as above; type: cell-based; settings: 2% NaCl added brain-heat infusion agar, 25° C., 24 hours
Protocol: as §1

Vibrio panulirus Vp-M-1 = assay: as above; type: cell-based; settings: VPM1, 3% NaCl added ordinary agar, 25° C., 24 hours
Protocol: as §1

Aeromonas salmonicida = assay: as above; type: cell-based; settings: 0.5% NaCl added ordinary agar, 25° C., 24 hours
Protocol: as §1

Aeromonas liquefaciens = assay: as above; type: cell-based; settings: Aeromonas hydrophila, 0.5% NaCl added ordinary agar, 25° C., 24 hours
Protocol: as §1

Vibrio anguillarum K-3 = assay: as above; type: cell-based; settings: K3, 3% NaCl added ordinary agar, 25° C., 24 hours
Protocol: as §1

Vibrio sp. Sp-1 = assay: as above; type: cell-based; settings: SP.SP1, 3% NaCl added ordinary agar, 25° C., 24 hours
Protocol: as §1

[4] = system: Streptococcus hemolyticus A 089; assay: Curative action in infected mice (Table 4); type: in vivo; settings: Streptococcus pyogenes, A089, 168 h, mice infected abdominally, oral in 5% gum arabic, observation one week
Protocol: (§2) Next, in Table 4 are shown the curative actions (ED50 mg/Kg body wt.) and acute toxicities (LD50 mg/kg body wt.) of the typical nitrofuran derivatives of the present invention when used with infected mice.
(§3) Note.- The numerical values in the table denote the amounts per unit body
(§4) weight of the nitrofuran derivatives required for cure when the experimen
(§5) was carried out using mice of body weight of about 20 grams and injecting
(§6) thereinto abdominally the microorganism-containing solutions in amounts o
(§7) 0.2 ml (the microorganism-containing solutions used being those in the
(§8) cases of test microorganisms 1, 3 and 4 in which the microorganism cultur
(§9) liquids were diluted 10^5, 5 and 10^2 times, respectively, and in
(§10) the case of test microorganism 2 that which was concentrated 2 times),
(§11) after which the nitrofuran derivatives suspended in 5% gum arabic were
(§12) forcedly administered orally followed by observation for one week.

[5] = system: Salmonella typhimium K-52; assay: Curative action in infected mice (Table 4); type: in vivo; settings: K52, 168 h, mice infected abdominally, oral in 5% gum arabic, observation one week
Protocol: as §2, §3, §4, §5, §6, §7, §8, §9, §10, §11, §12

[6] = system: Staphylococcus aureus 72r; assay: Curative action in infected mice (Table 4); type: in vivo; settings: 168 h, mice infected abdominally, oral in 5% gum arabic, observation one week
Protocol: as §2, §3, §4, §5, §6, §7, §8, §9, §10, §11, §12

Escherichia coli K-74 = assay: Curative action in infected mice (Table 4); type: in vivo; settings: K74, 168 h, mice infected abdominally, oral in 5% gum arabic, observation one week
Protocol: as §2, §3, §4, §5, §6, §7, §8, §9, §10, §11, §12

[7] = Acute toxicity in mice (Table 4); settings: mouse, in vivo, po
Protocol: as §2

[8] = system: Streptococcus hemolyticus A 089; assay: Minimum growth inhibiting concentration (Table 1); type: cell-based; settings: Streptococcus pyogenes, A089, TSBI, pH 7.2, 37° C., 48 hours
Protocol: (§13) For information, the minimum growth inhibiting concentration is a value
(§14) concerning microorganisms cultivated in TSBI the pH of which was adjusted
(§15) to 7.2, each bacteria being incubated at 37° C. for 48 hours.

[9] = system: Salmonella pullorum chuyu 114; assay: Minimum growth inhibiting concentration (Table 1); type: cell-based; settings: Salmonella enterica, TSBI, pH 7.2, 37° C., 48 hours
Protocol: as §13, §14, §15

[10] = system: Pseudomonas aeruguinosa 347; assay: Minimum growth inhibiting concentration (Table 1); type: cell-based; settings: TSBI, pH 7.2, 37° C., 48 hours
Protocol: as §13, §14, §15

Bacillus Subtilis PCI219 = assay: Minimum growth inhibiting concentration (Table 1); type: cell-based; settings: TSBI, pH 7.2, 37° C., 48 hours
Protocol: as §13, §14, §15

[11] = system: Klebsiella pneumoniae ST-101; assay: Minimum growth inhibiting concentration (Table 1); type: cell-based; settings: ST101, TSBI, pH 7.2, 37° C., 48 hours
Protocol: as §13, §14, §15

Proteus vulgaris HX-19 = assay: Minimum growth inhibiting concentration (Table 1); type: cell-based; settings: HX19, TSBI, pH 7.2, 37° C., 48 hours
Protocol: as §13, §14, §15

[12] = system: Diplococcus pneumoniae DP-1; assay: Minimum growth inhibiting concentration (Table 1); type: cell-based; settings: Streptococcus pneumoniae, DP1, TSBI, pH 7.2, 37° C., 48 hours
Protocol: as §13, §14, §15

[13] = system: Salmonella enteritidis 1891; assay: Minimum growth inhibiting concentration (Table 1); type: cell-based; settings: Salmonella enterica, TSBI, pH 7.2, 37° C., 48 hours
Protocol: as §13, §14, §15

[14] = system: Staphylococcus aureus 209P; assay: Minimum growth inhibiting concentration (Table 1); type: cell-based; settings: TSBI, pH 7.2, 37° C., 48 hours
Protocol: as §13, §14, §15

Escherichia coli O-55 = assay: Minimum growth inhibiting concentration (Table 1); type: cell-based; settings: O55, TSBI, pH 7.2, 37° C., 48 hours
Protocol: as §13, §14, §15

[15] = system: Staphlococcus aureus Kawanabe II; assay: Curative effects on Staphlomycosis of fowl (Table 7); type: in vivo; settings: two weeks, chicks died / chicks tested
Protocol: A culture liquid obtained by cultivation of Staphlococcus aureus Kawanabe II for 20 hours at 37° C. in a heart infusion culture medium was injected intravenously into 3-week-old chicks at the rate of 0.2 ml per chick. Nitrofuran derivatives mixed in amounts indicated below in the feeds were then fed these chicks for two weeks. In the table the expression, "death rate" has the following meaning. For instance, the value 3/9 denotes that three out of the nine chicks submitted to the test died.

O=C(NCCO)c1ccc(C=Cc2ccc([N+](=O)[O-])o2)cc1 [Example 1, 2-Para-[2'-(5"-nitro-2"-furyl)-vinyl]-benzoylaminoethanol]
ED50 ([1]; oral administration): 21.8 mg/kg
ED50 ([1]; sc, subcutaneous injection): 50 mg/kg
MIC [2]: 0.0037 µg/mL (≈ 0.0122 µM)
MIC (Aeromonas punctata): 0.125 µg/mL (≈ 0.414 µM)
MIC [3]: < 0.015 µg/mL
MIC (Pasteurella piricida SU): 0.037 µg/mL (≈ 0.122 µM)
MIC (Vibrio panulirus Vp-M-1): 0.009 µg/mL (≈ 0.0298 µM)
MIC (Aeromonas salmonicida): 0.018 µg/mL (≈ 0.0595 µM)
MIC (Aeromonas liquefaciens): 0.062 µg/mL (≈ 0.205 µM)
MIC (Vibrio anguillarum K-3): 0.018 µg/mL (≈ 0.0595 µM)
MIC (Vibrio sp. Sp-1): 0.018 µg/mL (≈ 0.0595 µM)
ED50 [4]: 8 mg/kg
ED50 [5]: 75 mg/kg
ED50 [6]: 14 mg/kg
ED50 (Escherichia coli K-74): 14 mg/kg
LD50 [7]: 1500 mg/kg
MIC [8]: < 0.19 µg/mL
MIC [9]: 3.13 µg/mL (≈ 10.4 µM)
MIC [10]: 12.5 µg/mL (≈ 41.4 µM)
MIC (Bacillus Subtilis PCI219): < 0.19 µg/mL
MIC [11]: 3.13 µg/mL (≈ 10.4 µM)
MIC (Proteus vulgaris HX-19): 3.13 µg/mL (≈ 10.4 µM)
MIC [12]: 0.78 µg/mL (≈ 2.58 µM)
MIC [13]: 1.56 µg/mL (≈ 5.16 µM)
MIC [14]: 0.78 µg/mL (≈ 2.58 µM)
MIC (Escherichia coli O-55): 3.13 µg/mL (≈ 10.4 µM)
Death rate ([15]; 50 ppm in feed): 3/9
Death rate ([15]; 100 ppm in feed): 2/9
Death rate ([15]; 200 ppm in feed): 2/9
Death rate ([15]; 400 ppm in feed): 2/9
Death rate ([15]; 800 ppm in feed): 1/9

O=C(NCC(O)CO)c1ccc(C=Cc2ccc([N+](=O)[O-])o2)cc1 (centres unmarked) [Example 9, 3-Para-[2'-(5"-nitro-2"-furyl)-vinyl]-benzoylamino-1,2-propanediol]
ED50 ([1]; oral administration): 25.5 mg/kg
ED50 ([1]; sc, subcutaneous injection): 42.1 mg/kg
MIC [2]: 0.0037 µg/mL (≈ 0.0111 µM)
MIC (Aeromonas punctata): 0.25 µg/mL (≈ 0.752 µM)
MIC [3]: < 0.015 µg/mL
MIC (Pasteurella piricida SU): 0.037 µg/mL (≈ 0.111 µM)
MIC (Vibrio panulirus Vp-M-1): 0.009 µg/mL (≈ 0.0271 µM)
MIC (Aeromonas salmonicida): 0.018 µg/mL (≈ 0.0542 µM)
MIC (Aeromonas liquefaciens): 0.037 µg/mL (≈ 0.111 µM)
MIC (Vibrio anguillarum K-3): 0.037 µg/mL (≈ 0.111 µM)
MIC (Vibrio sp. Sp-1): 0.018 µg/mL (≈ 0.0542 µM)
ED50 [4]: 15 mg/kg
ED50 [5]: 100 mg/kg
ED50 [6]: 21 mg/kg
ED50 (Escherichia coli K-74): 10 mg/kg
LD50 [7]: > 2000 mg/kg
MIC [8]: < 0.19 µg/mL
MIC [9]: 6.25 µg/mL (≈ 18.8 µM)
MIC [10]: > 25 µg/mL
MIC (Bacillus Subtilis PCI219): < 0.19 µg/mL
MIC [11]: 6.25 µg/mL (≈ 18.8 µM)
MIC (Proteus vulgaris HX-19): 6.25 µg/mL (≈ 18.8 µM)
MIC [12]: < 0.19 µg/mL
MIC [13]: 1.56 µg/mL (≈ 4.69 µM)
MIC [14]: 0.78 µg/mL (≈ 2.35 µM)
MIC (Escherichia coli O-55): 3.13 µg/mL (≈ 9.42 µM)
Death rate ([15]; 50 ppm in feed): 3/9
Death rate ([15]; 100 ppm in feed): 2/9
Death rate ([15]; 200 ppm in feed): 2/9
Death rate ([15]; 400 ppm in feed): 2/9
Death rate ([15]; 800 ppm in feed): 2/9
